Paper PMC11641365, “Evaluation of In Vitro Biological Activity of Flavanone/Chromanone Derivatives: Molecular Analysis of Anticancer Mechanisms in Colorectal Cancer” (International Journal of Molecular Sciences, 2024)

Legend:
Format in all cases: cell-based, human
[1] = test system: HCT 116, SW620, LoVo, Caco-2, and HT-29 cancer cell lines; assay: Alkaline comet assay (DNA damage), all cell lines; details: compound at IC50, 12 h; all five cell lines
Excerpt: Single-cell gel electrophoresis, also known as the comet assay, is a rapid and sensitive method for assessing DNA damage at the single-cell level. Cells are lysed and electrophoresed. Both single-strand and double-strand breaks are detected under alkaline conditions. The released DNA is denatured and moves in the agarose gel toward the anode during electrophoresis. The image, obtained after staining with the fluorescent dye 4′,6-diamidino-2-phenylindole (DAPI), resembles a “comet” with a distinct “head” (intact DNA) and “tail” (damaged DNA fragments). The length of the tail depends on the number and size of the broken DNA strands.
Cells (1 × 10^3) were seeded in 35 mm dishes and cultured in the medium for 24 h to attain the logarithmic growth phase. […] Subsequently, cells were trypsinized and centrifuged for 10 min at 100× g at 4 °C. A small amount of PBS and a 0.5% solution of low-melting-point agarose (LMP agarose) were added to the obtained cell pellet and placed on a glass slide covered with two layers of normal-melting-point agarose (NMP agarose). The slides were incubated for 24 h in a lysis buffer (2.5 M NaCl, 100 mM, Na2EDTA, 10 mM, Tris, 1% Triton X-100) to release DNA. […] Quantitative analysis of the DNA comet image of preparations stained with DAPI solution (2 μg/L) was performed using a camera connected to a fluorescence microscope. The comet DNA analysis was performed under a Nikon Eclipse fluorescence microscope (Nikon, Tokyo, Japan) equipped with a 4910 COHU video camera (Cohu, Inc., San Diego, CA, USA) and a computer with Lucia-Comet v. […] Each time, from each preparation, 100 randomly selected comets were counted. The extent of DNA damage is quantified by measuring the length of the comet tail and the amount of DNA it contains. The Lucia Comet software calculated the percentage of DNA damage based on measurements of color intensity and comet tail length. The intensity of fluorescence was determined by the software, which calculated a series of parameters characterizing the extent of DNA damage for each cell. […]

LoVo [2] = assay: Intracellular GSH level, monochlorobimane (MCB) probe; details: compound at IC50, 24 h, vs control
Method: (§1) The spectrofluorimetric method with monochlorobimane (MCB; Sigma-Aldrich; St. Louis, MO, USA) was used to determine GSH. Monochlorobimane reacts with glutathione in a reaction catalyzed by cellular glutathione S-transferase. The reaction produces a fluorescent bimane-glutathione conjugate (GSH-MCB). A major advantage of MCB is its ability to penetrate the cell membrane, which is why it is used as a probe to determine the amount of GSH in living cells.
(§2) Cells were seeded in black 96-well fluorometric microplates at a density of 10 × 10^3 cells/mL. […] Following compound incubation, the medium was removed, and the cell monolayers were washed twice with HBSS (140 mM NaCl, 5 mM KCl, 0.8 mM MgCl2, 1.8 mM CaCl2, 1 mM Na2HPO4, 10 mM HEPES, and 1% glucose). A solution of MCB at a final concentration of 40 μM was added to each well and incubated in a CO2 cell culture incubator at 37 °C for 20 min. A 40 mM MCB stock solution was prepared by dissolving 9 mg of the reagent in 1 mL of absolute ethanol. Fluorescence was measured using a Perkin-Elmer LS-5B spectrofluorometer (Waltham, MA, USA) at the following excitation and fluorescence emission wavelengths: λex = 380 nm/λem = 470 nm. After incubation with MCB, the cells were lysed with 50 μL of lysis buffer (10 mM TRIS-HCl; pH 8 containing 0.1% Triton X-100). In order to normalize the number of cells in individual samples, the amount of DNA was determined by adding 50 μL of ethidium bromide (EB, final concentration 0.2 mM) to each well after measuring the MCB fluorescence and measuring the EB fluorescence at an excitation wavelength of λex = 530 nm and an emission wavelength of λem = 590 nm. The results obtained using the standard curve were converted to nM of GSH.

SW620 = assay: as above; details: compound at IC50, 24 h, vs control
Method: as §1, §2

LoVo [3] = assay: Hydrogen peroxide level, H2DCFDA probe; details: compound at IC50, 24 h; for Increase in H2O2 levels: vs control
Method: Cellular H2O2 levels were assessed using 2′,7′-dichlorodihydrofluorescein diacetate (H2DCFDA, Sigma-Aldrich, St. Louis, MO, USA), a well-established fluorogenic probe for intracellular hydrogen peroxide detection. H2DCFDA readily diffuses across the cell membrane and is subsequently hydrolyzed by intracellular esterases to non-fluorescent H2DCF. Oxidation of H2DCF by ROS generates highly fluorescent 2′,7′-dichlorofluorescein (DCF), which accumulates in the cytosol. […] The fluorescence intensity of DCF is directly proportional to the concentration of ROS within the cell.
Cells were seeded in black 96-well fluorometric microplates at a density of 10 × 10^3 cells/mL. […] Following compound incubation, the medium was removed, and the cell monolayers were washed twice with HBSS (140 mM NaCl, 5 mM KCl, 0.8 mM MgCl2, 1.8 mM CaCl2, 1 mM Na2HPO4, 10 mM HEPES, and 1% glucose). A volume of 50 µL of H2DCFDA solution in HBSS (final concentration 5 μM) was added to each well, and the cells were incubated for 30 min in the dark at 37 °C. After incubation with the H2DCFDA, fluorescence measurements were conducted using a Perkin-Elmer LS-5B spectrofluorometer (MA, USA) at the following excitation and fluorescence emission wavelengths: λex = 498 nm/λem = 522 nm. The fluorescence intensity of control cells was arbitrarily assigned a value of 100%. The results were expressed as percentages of control, calculated by comparing the fluorescence intensity ratio of the test samples to controls (100%). The fluorescence of samples was denoted as Δf in relation to the control.

Row | Compound | Genotoxic properties (comet assay) [1] | Decrease in GSH levels (LoVo [2]) | Decrease in GSH levels (SW620) [%] | Effect on H2O2 levels (LoVo [3]) | Increase in H2O2 levels (LoVo [3]) [%]
1 | O=C1/C(=C/c2ccccc2)C(c2ccccc2)Oc2ccccc21 (stereo not drawn) [Compound 5] | potent genotoxic properties | 30–35% | 30 | did not affect H2O2 levels | 
2 | COc1cccc(/C=C2/C(=O)c3ccccc3OC2c2ccccc2)c1 (stereo not drawn) [Compound 3] | potent genotoxic properties | 30–35% | 30 |  | 10
3 | O=C1/C(=C/c2ccccc2)COc2ccccc21 [Compound 1] | potent genotoxic properties | 30–35% | 40 |  | 10
